Eight compounds from patent US11339161B2, “Triazolo pyridines as modulators of gamma-secretase” (Boehringer Ingelheim International GmbH, priority 2017, dated 2022) can be followed below.

One experiment deals with LYN B (Homo sapiens, UniProt P07948). In words: Z'-LYTE SelectScreen biochemical kinase assay LYN B. From the text: (§1) Thermo Fisher Scientific SelectScreen™ Biochemical Kinase Profiling Service Z′-LYTE™ Screening Protocol and Assay Conditions Assay Theory
(§2) The […] biochemical assay employs a fluorescence-based, coupled-enzyme format and is based on the differential sensitivity of phosphorylated and non-phosphorylated peptides to proteolytic cleavage. The peptide substrate is labeled with two fluorophores—one at each end—that make up a FRET pair. In the primary reaction, the kinase transfers the gamma-phosphate of ATP to a single tyrosine, serine or threonine residue in a synthetic FRET-peptide. In the secondary reaction, a site-specific protease recognizes and cleaves non-phosphorylated FRET-peptides. Phosphorylation of FRET-peptides suppresses cleavage by the Development Reagent. Cleavage disrupts FRET between the donor (i.e., coumarin) and acceptor (i.e., fluorescein) fluorophores on the FRET-peptide, whereas uncleaved, phosphorylated FRET-peptides maintain FRET. A ratiometric method, which calculates the ratio (Emission Ratio=Coumarin emission (445 nm)/Fluorescein emission (520 nm)) of donor emission to acceptor emission after excitation of the donor fluorophore at 400 nm, is used to quantitate reaction progress, as shown in the equation below. A significant benefit of this ratiometric method for quantitating reaction progress is the elimination of well-to-well variations in FRET-peptide concentration and signal intensities. As a result, the assay yields very high Z′-factor values (>0.7) at a low percent phosphorylation. Both cleaved and uncleaved FRET-peptides contribute to the fluorescence signals and therefore to the Emission Ratio. The extent of phosphorylation of the FRET-peptide can be calculated from the Emission Ratio. The Emission Ratio will remain low if the FRET-peptide is phosphorylated (i.e., no kinase inhibition) and will be high if the FRET-peptide is non-phosphorylated (i.e., kinase inhibition).
(§3) The Test Compounds are screened in 1% DMSO (final) in the well. For 10 point titrations, 3-fold serial dilutions are conducted from the starting concentration of the customer's choosing.
(§4) All Peptide/Kinase Mixtures are diluted to a 2× working concentration in the appropriate Kinase Buffer (see section Kinase Specific Assay Conditions for a complete description).
(§5) All ATP Solutions are diluted to a 4× working concentration in Kinase Buffer (50 mM HEPES pH 7.5, 0.01% BRIJ-35, 10 mM MgCl2, 1 mM EGTA). ATP Km apparent is previously determined using a Z″-LYTE assay.
(§6) The Development Reagent is diluted in Development Buffer (see section Kinase-Specific Assay Conditions—Direct and Cascade for a complete description).
(§7) Bar-coded Corning, low volume NBS, black 384-well plate (Corning Cat. #4514) • 1. 100 nL—100× Test Compound in 100% DMSO • 2. 2.4 μL—Kinase buffer • 3. 5 μL—2× Peptide/Kinase Mixture • 4. 2.5 μL—4×ATP Solution • 5. 30—second plate shake • 6. 60—minute Kinase Reaction incubation at room temperature • 7. 5 μL—Development Reagent Solution • 8. 30—second plate shake • 9. 60—minute Development Reaction incubation at room temperature • 10. Read on fluorescence plate reader and analyze the data Z′-LYTE Assay Controls
(§8) SelectScreen Kinase Profiling Service uses XLfit from IDBS. The dose response curve is curve fit to model number 205 (sigmoidal dose-response model).
The 2×LYN B/Tyr 02 mixture is prepared in 50 mM HEPES pH 7.5, 0.01% BRIJ-35, 10 mM MgCl2, 1 mM EGTA. The final 10 μL Kinase Reaction consists of 0.85-14.8 ng LYN B and 2 μM Tyr 02 in 50 mM HEPES pH 7.5, 0.01% BRIJ-35, 10 mM MgCl2, 1 mM EGTA. After the 1 hour Kinase Reaction incubation, 5 μL of a 1:128 dilution of Development Reagent A is added.

The target in another experiment is FGFR2 (Homo sapiens, UniProt P21802). Nature of the experiment: Z'-LYTE SelectScreen biochemical kinase assay FGFR2.
Excerpt: as §1, §2, §3, §4, §5, §6, §7, §8
The 2×FGFR2/Tyr 04 mixture is prepared in 50 mM HEPES pH 7.5, 0.01% BRIJ-35, 10 mM MgCl2, 4 mM MnCl2, 1 mM EGTA, 2 mM DTT. The final 10 μL Kinase Reaction consists of 0.19-1.99 ng FGFR2 and 2 μM Tyr 04 in 50 mM HEPES pH 7.5, 0.01% BRIJ-35, 10 mM MgCl2, 2 mM MnCl2, 1 mM EGTA, 1 mM DTT. After the 1 hour Kinase Reaction incubation, 5 μL of a 1:64 dilution of Development Reagent B is added.

In a further experiment the target is FLT4 (VEGFR3) (Homo sapiens, UniProt P35916). In words: Z'-LYTE SelectScreen biochemical kinase assay FLT4 (VEGFR3).
Excerpt: as §1, §2, §3, §4, §5, §6, §7, §8
The 2×FLT4 (VEGFR3)/Tyr 04 mixture is prepared in 50 mM HEPES pH 7.5, 0.01% BRIJ-35, 10 mM MgCl2, 4 mM MnCl2, 1 mM EGTA, 2 mM DTT. The final 10 μL Kinase Reaction consists of 2-10.5 ng FLT4 (VEGFR3) and 2 μM Tyr 04 in 50 mM HEPES pH 7.5, 0.01% BRIJ-35, 10 mM MgCl2, 2 mM MnCl2, 1 mM EGTA, 1 mM DTT. After the 1 hour Kinase Reaction incubation, 5 μL of a 1:64 dilution of Development Reagent B is added.

Another experiment deals with KDR (VEGFR2) (Homo sapiens, UniProt P35968). Nature of the experiment: Z'-LYTE SelectScreen biochemical kinase assay KDR (VEGFR2).
Excerpt: as §1, §2, §3, §4, §5, §6, §7, §8
The 2×KDR (VEGFR2)/Tyr 01 mixture is prepared in 50 mM HEPES pH 7.5, 0.01% BRIJ-35, 10 mM MgCl2, 1 mM EGTA. The final 10 μL Kinase Reaction consists of 1-30 ng KDR (VEGFR2) and 2 μM Tyr 01 in 50 mM HEPES pH 7.5, 0.01% BRIJ-35, 10 mM MgCl2, 1 mM EGTA. After the 1 hour Kinase Reaction incubation, 5 μL of a 1:256 dilution of Development Reagent B is added.

The subject of the next experiment is kinases. In words: Z'-LYTE SelectScreen kinase panel: number of kinases with <40% inhibition out of 15 tested. The class given is biochemical. Conditions: 10 μmolar (10000 nM) compound; [ATP] Km app; 15 kinases tested.
[1] abbreviates: 10 μmolar compound concentration, ATP at Km app, read-out: LYN B inhibition.
Setting [2] is: read-out: % Inhibition mean LYN B.
[3] abbreviates: 10 μmolar compound concentration, ATP at Km app, read-out: FGFR2 inhibition.
The mark [4] stands for this setting: read-out: % Inhibition mean FGFR2.
[5] abbreviates: 10 μmolar compound concentration, ATP at Km app, read-out: FLT4 (VEGFR3) inhibition.
Where [6] appears, read: read-out: % Inhibition mean FLT4 (VEGFR3).
The mark [7] stands for this setting: 10 μmolar compound concentration, ATP at Km app, read-out: KDR (VEGFR2) inhibition.
Where [8] appears, read: read-out: % Inhibition mean KDR (VEGFR2).

SMILES strings stand for the structures. Like-named read-outs stand apart in the source and are kept apart here. Bounds are passed on as bounds.

The term inhibition denotes the relative decrease from the control value, in per cent.

FLT4 (VEGFR3), sequence (P35916 25-1363): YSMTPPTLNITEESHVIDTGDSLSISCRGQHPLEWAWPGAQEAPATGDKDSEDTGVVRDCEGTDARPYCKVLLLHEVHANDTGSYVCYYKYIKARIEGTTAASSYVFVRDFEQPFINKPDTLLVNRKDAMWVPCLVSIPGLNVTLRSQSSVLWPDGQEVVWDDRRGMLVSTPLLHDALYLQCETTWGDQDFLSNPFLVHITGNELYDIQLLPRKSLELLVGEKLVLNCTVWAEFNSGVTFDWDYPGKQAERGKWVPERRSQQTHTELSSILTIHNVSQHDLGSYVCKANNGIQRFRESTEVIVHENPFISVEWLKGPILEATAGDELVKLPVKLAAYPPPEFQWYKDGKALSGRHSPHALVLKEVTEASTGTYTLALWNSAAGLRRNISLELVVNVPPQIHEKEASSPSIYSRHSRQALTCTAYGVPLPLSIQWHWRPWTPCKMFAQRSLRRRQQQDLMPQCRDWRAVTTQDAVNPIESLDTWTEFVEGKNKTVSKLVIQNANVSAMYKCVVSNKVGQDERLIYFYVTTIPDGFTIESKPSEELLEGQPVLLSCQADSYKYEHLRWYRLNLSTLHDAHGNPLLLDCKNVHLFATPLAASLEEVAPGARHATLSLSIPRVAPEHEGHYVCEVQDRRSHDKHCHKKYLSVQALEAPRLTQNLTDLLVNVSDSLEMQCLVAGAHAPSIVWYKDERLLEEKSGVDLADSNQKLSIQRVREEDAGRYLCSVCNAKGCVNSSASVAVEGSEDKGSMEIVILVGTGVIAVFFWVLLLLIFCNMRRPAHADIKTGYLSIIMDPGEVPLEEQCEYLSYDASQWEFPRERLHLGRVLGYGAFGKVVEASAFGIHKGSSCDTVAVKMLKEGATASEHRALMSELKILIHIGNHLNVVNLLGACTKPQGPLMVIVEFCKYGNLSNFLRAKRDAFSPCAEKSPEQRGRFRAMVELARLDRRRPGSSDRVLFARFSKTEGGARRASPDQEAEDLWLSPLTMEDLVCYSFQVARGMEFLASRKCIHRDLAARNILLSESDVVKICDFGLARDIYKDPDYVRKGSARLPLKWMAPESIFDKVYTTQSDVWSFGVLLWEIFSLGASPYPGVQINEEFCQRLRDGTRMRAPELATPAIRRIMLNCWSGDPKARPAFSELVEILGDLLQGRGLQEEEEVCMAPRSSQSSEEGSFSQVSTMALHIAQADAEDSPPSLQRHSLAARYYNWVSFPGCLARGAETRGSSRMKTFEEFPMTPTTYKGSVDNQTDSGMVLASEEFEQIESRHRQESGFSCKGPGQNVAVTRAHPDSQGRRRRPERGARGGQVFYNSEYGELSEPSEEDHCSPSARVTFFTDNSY
FGFR2, sequence (P21802 22-821): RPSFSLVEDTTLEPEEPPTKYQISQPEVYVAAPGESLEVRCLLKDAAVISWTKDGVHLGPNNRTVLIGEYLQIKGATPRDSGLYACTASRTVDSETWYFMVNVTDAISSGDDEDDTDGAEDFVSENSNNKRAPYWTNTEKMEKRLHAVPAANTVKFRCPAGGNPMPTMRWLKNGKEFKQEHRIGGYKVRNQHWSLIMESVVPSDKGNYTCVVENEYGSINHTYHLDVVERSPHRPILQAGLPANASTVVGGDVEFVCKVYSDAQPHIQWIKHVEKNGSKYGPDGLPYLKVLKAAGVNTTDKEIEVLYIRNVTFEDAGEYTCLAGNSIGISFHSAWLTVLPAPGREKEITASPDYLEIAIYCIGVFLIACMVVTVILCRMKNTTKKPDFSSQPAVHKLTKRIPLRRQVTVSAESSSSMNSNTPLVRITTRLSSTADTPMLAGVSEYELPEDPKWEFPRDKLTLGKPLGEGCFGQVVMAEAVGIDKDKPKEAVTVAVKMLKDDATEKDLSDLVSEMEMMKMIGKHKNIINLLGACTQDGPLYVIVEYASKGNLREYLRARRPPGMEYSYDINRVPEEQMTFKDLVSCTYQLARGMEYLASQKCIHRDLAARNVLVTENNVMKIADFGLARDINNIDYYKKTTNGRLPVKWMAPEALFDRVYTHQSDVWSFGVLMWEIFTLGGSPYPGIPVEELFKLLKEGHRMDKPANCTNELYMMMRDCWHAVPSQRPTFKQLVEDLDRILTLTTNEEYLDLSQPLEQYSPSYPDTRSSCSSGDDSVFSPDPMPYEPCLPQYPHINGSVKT
LYN B, sequence (P07948 1-491 isoform P07948-2): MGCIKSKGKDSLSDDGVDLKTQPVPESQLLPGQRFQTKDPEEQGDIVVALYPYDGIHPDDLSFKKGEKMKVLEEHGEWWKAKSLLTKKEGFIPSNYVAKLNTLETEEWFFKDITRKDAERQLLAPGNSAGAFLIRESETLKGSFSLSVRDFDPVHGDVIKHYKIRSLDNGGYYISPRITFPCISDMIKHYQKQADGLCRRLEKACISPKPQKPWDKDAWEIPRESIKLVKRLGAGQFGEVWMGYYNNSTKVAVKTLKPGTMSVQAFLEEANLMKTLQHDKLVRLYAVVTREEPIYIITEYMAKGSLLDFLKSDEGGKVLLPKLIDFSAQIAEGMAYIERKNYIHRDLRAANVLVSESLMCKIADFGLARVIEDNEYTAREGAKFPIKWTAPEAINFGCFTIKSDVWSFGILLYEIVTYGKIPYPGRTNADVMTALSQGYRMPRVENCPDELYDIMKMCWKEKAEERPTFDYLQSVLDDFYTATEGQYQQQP
KDR (VEGFR2), sequence (P35968 20-1356): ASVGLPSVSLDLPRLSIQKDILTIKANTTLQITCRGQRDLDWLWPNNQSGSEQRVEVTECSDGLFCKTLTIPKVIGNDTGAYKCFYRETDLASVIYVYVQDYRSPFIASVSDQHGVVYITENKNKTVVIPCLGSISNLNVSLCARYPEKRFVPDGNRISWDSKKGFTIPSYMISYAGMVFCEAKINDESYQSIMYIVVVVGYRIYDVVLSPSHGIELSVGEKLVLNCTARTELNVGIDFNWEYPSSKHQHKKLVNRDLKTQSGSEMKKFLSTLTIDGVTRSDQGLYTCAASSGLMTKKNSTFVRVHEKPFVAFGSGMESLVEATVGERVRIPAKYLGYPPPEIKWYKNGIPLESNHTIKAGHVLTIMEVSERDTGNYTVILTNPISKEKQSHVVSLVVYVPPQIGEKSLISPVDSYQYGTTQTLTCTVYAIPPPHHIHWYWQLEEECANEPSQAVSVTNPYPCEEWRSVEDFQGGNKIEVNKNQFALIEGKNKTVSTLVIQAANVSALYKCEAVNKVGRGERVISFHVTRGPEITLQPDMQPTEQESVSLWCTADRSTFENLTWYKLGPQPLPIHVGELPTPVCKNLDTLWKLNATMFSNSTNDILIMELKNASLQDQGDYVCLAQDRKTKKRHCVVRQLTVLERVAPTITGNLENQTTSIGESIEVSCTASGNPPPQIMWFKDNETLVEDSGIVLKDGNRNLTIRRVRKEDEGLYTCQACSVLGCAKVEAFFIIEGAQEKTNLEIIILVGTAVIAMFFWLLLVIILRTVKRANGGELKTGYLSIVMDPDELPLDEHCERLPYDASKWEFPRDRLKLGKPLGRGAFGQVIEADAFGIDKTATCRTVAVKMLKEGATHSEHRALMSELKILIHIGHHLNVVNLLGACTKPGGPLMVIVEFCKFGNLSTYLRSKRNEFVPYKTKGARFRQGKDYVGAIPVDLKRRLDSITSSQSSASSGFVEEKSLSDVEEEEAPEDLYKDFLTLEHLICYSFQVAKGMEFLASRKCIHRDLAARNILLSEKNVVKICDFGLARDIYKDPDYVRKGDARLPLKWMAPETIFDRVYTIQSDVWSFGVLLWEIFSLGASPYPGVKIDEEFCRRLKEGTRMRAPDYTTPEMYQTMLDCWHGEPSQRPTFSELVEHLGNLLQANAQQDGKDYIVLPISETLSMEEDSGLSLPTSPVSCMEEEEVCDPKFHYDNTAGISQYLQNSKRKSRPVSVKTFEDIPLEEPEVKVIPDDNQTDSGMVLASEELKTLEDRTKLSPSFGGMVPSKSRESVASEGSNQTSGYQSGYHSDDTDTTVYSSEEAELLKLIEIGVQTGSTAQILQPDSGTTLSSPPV

For the compound `CCn1nnc2c1CCC(Nc1nc3c(-c4ccc(F)cc4C)cccn3n1)C2` (centres unmarked) [Example 51, (1-Ethyl-4,5,6,7-tetrahydro-1H-benzotriazol-5-yl)-[8-(4-fluoro-2-methyl-phenyl)-[1,2,4]triazolo[1,5-a]pyridine-2-yl]-amine], the inhibition at 10 µM at LYN B (setting [1]) is under 40%; on LYN B (setting [2]), 7%; on FGFR2 (setting [3]) it was under 40%; on FGFR2 (setting [4]), 28%; at FLT4 (VEGFR3) (setting [5]), under 40%; at FLT4 (VEGFR3) (setting [6]), 15%. The inhibition at 10 µM is under 40% on KDR (VEGFR2) (setting [7]) and -10% on KDR (VEGFR2) (setting [8]). In addition, the “No. of kinases with <40% inhibition” value in the experiment with kinases was 15/15.
In the case of `CCn1ncc2c1CC[C@@H](Nc1nc3c(-c4ccc(F)cc4C)cccn3n1)C2` [Example R-42, (R)-(1-Ethyl-4,5,6,7-tetrahydro-1H-indazol-5-yl)-[8-(4-fluoro-2-methyl-phenyl)-[1,2,4]triazolo[1,5-a]pyridine-2-yl]-amine], the inhibition at 10 µM is under 40% at LYN B (setting [1]); 26% at LYN B (setting [2]); under 40% on FGFR2 (setting [3]); 30% at FGFR2 (setting [4]); under 40% on FLT4 (VEGFR3) (setting [5]); 36% on FLT4 (VEGFR3) (setting [6]). Moreover, the inhibition at 10 µM at KDR (VEGFR2) (setting [7]) was under 40%; on KDR (VEGFR2) (setting [8]), 10%. Further, the “No. of kinases with <40% inhibition” value with kinases is 14/15.
Consider `CCn1nc(Cl)c2c1CCC(Nc1nc3c(-c4ccc(F)cc4C)cccn3n1)C2` (centres unmarked) [Example 48, (3-Chloro-1-ethyl-4,5,6,7-tetrahydro-1H-indazol-5-yl)-[8-(4-fluoro-2-methyl-phenyl)-[1,2,4]triazolo[1,5-a]pyridine-2-yl]-amine], for which the inhibition at 10 µM on LYN B (setting [1]) is under 40%; on LYN B (setting [2]), 22%; on FGFR2 (setting [3]), under 40%; on FGFR2 (setting [4]), 22%; on FLT4 (VEGFR3) (setting [5]) it was under 40%; at FLT4 (VEGFR3) (setting [6]), 19%. Moreover, the inhibition at 10 µM on KDR (VEGFR2) (setting [7]) is under 40%; on KDR (VEGFR2) (setting [8]), 2%. Also, the “No. of kinases with <40% inhibition” value in the experiment on kinases is on record as 14/15.
Take `Cc1cc(F)ccc1-c1cccn2nc(NC3CCc4c(cnn4CC(C)C)C3)nc12` (centres unmarked) [Example 45, [8-(4-fluoro-2-methyl-phenyl)-[1,2,4]triazolo[1,5-a]pyridine-2-yl]-(1-isobutyl-4,5,6,7-tetrahydro-1H-indazol-5-yl)-amine]: the inhibition at 10 µM is under 40% at LYN B (setting [1]); 15% at LYN B (setting [2]); under 40% on FGFR2 (setting [3]); 16% at FGFR2 (setting [4]); under 40% on FLT4 (VEGFR3) (setting [5]); 33% at FLT4 (VEGFR3) (setting [6]). The inhibition at 10 µM at KDR (VEGFR2) (setting [7]) is under 40%; at KDR (VEGFR2) (setting [8]), -10%. Moreover, the “No. of kinases with <40% inhibition” value with kinases was 14/15.
With `Cc1cc(F)ccc1-c1cccn2nc(NC3CCc4cnn(C)c4C3)nc12` (centres unmarked) [Example 40, [8-(4-Fluoro-2-methyl-phenyl)-[1,2,4]triazolo[1,5-a]pyridine-2-yl]-(1-methyl-4,5,6,7-tetrahydro-1H-indazol-6-yl)-amine], the inhibition at 10 µM at LYN B (setting [1]) is under 40%; on LYN B (setting [2]) it was 20%; on FGFR2 (setting [3]) it was under 40%; at FGFR2 (setting [4]), 17%; on FLT4 (VEGFR3) (setting [5]), under 40%; at FLT4 (VEGFR3) (setting [6]), 16%. The inhibition at 10 µM at KDR (VEGFR2) (setting [7]) is under 40%; at KDR (VEGFR2) (setting [8]), -10%. For the same compound, the “No. of kinases with <40% inhibition” value in the experiment on kinases was 13/15.
Consider `CCn1ncc2c1CCC(Nc1nc3c(-c4ccccc4)cccn3n1)C2` (centres unmarked) [Example 57, (1-Ethyl-4,5,6,7-tetrahydro-1H-indazol-5-yl)-(8-phenyl-[1,2,4]triazolo[1,5-a]pyridine-2-yl)-amine], for which the inhibition at 10 µM is under 40% on LYN B (setting [1]); 20% at LYN B (setting [2]); under 40% on FGFR2 (setting [3]); 22% at FGFR2 (setting [4]); 40 to 80% at FLT4 (VEGFR3) (setting [5]); 43% at FLT4 (VEGFR3) (setting [6]). Also, the results for the inhibition at 10 µM at KDR (VEGFR2) (setting [7]) and at KDR (VEGFR2) (setting [8]) were under 40% and 18%, respectively. Moreover, the “No. of kinases with <40% inhibition” value in the experiment with kinases is 12/15.
With `CCn1ncc2c1CCC(Nc1nc3c(-c4ccccc4C)cccn3n1)C2` (centres unmarked) [Example 56, (1-Ethyl-4,5,6,7-tetrahydro-1H-indazol-5-yl)-[8-(2-methyl-phenyl)-[1,2,4]triazolo[1,5-a]pyridine-2-yl]-amine], the inhibition at 10 µM is under 40% on LYN B (setting [1]); 19% on LYN B (setting [2]); under 40% on FGFR2 (setting [3]); 19% on FGFR2 (setting [4]); 35% at FLT4 (VEGFR3) (setting [6]); under 40% at KDR (VEGFR2) (setting [7]). The inhibition at 10 µM at KDR (VEGFR2) (setting [8]) was 6%. In the experiment with kinases, the “No. of kinases with <40% inhibition” value was 12/15.
`Cc1cc(F)ccc1-c1cccn2nc(NC3CCc4c(cnn4C)C3)nc12` (centres unmarked) [Example 10, [8-(4-fluoro-2-methyl-phenyl)-[1,2,4]triazolo[1,5-a]pyridine-2-yl]-(1-methyl-4,5,6,7-tetrahydro-1H-indazol-5-yl)-amine]: the inhibition at 10 µM on LYN B (setting [1]) was under 40%; at LYN B (setting [2]), 17%; on FGFR2 (setting [3]), under 40%; on FGFR2 (setting [4]), 14%; on FLT4 (VEGFR3) (setting [5]), under 40%; at FLT4 (VEGFR3) (setting [6]), 22%. The values for the inhibition at 10 µM at KDR (VEGFR2) (setting [7]) and on KDR (VEGFR2) (setting [8]) were under 40% and -2%, respectively. Further, in the experiment on kinases, the “No. of kinases with <40% inhibition” value is 13/15.
